For series [1], the system named is rat neutrophils. The settings on record: rat neutrophils stimulated with fMLP; concentration of 3 mg/mL; cited from earlier work.
A further series deals with RAW 264.7 cells. Kind of series: NO production (nitrite accumulation, Griess reaction) in LPS-stimulated macrophage-like cells. The format is cell-based, mouse. Particulars: for % of inhibition of NO2− accumulation at the highest concentration, RAW 264.7 cells: LPS, at the highest concentration (bound given in the source); for IC50: Mus musculus, RAW264.7, LPS (1 μg/mL), 24 hrs, read-out: IC50, accumulation of NO2− in culture media, RAW 264.7 cells. On the procedure:
RAW 264.7 mouse macrophage-like cell line (American Type Culture Collection (ATCC), PO Box 1549, Manassas, Va. 20108 USA) was plated in 96 well tissue-culture plates in Dulbecco's Modified Eagle Medium (DMEM) supplemented with 10% fetal calf serum (FCS), 100 units/ml of penicillin and streptomycin at 2×10^5 cells/200 μL per well. Cells were allowed to adhere overnight. The cells were treated with DMSO or a tested compound at 37° C. for 1 hr. followed by stimulation with 1 μg/mL of LPS (Escherichia coli, serotype 0111:B4) for 24 hrs. Thereafter, the medium in each well was collected and stored at −70° C. until use. The final volume of DMSO in the reaction mixture was≦0.5%.
(§1) The production of NO in cell medium was determined by measuring the content of nitrite based on the Griess reaction (L. Mingghetti et at (1997), Glia, 19, 152-160). Briefly, 40 μL of 5 mM sulfanilamide, 10 μL of 2 M HCl, and 20 μL of 40 mM naphthylethylenediamine were added into 150 μL culture medium in sequence. After 10 min of incubation at room temperature, absorbance was measured at 550 nm in a microplate reader. A standard nitrite curve was generated in the same fashion, using NaNO2.

In series [2] the test system is rat neutrophils. Kind of series: Neutrophil degranulation stimulated with fMLP/CB (release of β-glucuronidase and lysozyme). The format is cell-based. The settings on record: rat neutrophils; for IC50: Neutrophil, fMLP (1 μM)/CB (5 μg/mL). As to the method:
Blood was withdrawn from rat (Sprague-Dawley, 250-300 g, 10-12 weeks old) and mixed with EDTA. […] Cell suspension was preincubated at 37° C. with DMSO or drugs for 10 min, and then challenged with fMLP (1 μM)/CB (5 μg/mL). The final volume of DMSO in the reaction mixture was≦0.5%. […] After treatment of the cell suspension with Triton X-100, the total content of lysozyme and β-glucuronidase was measured and the percentage release was calculated. In the experiment, Trifluoperazine was used as a positive control.

The test system of series [3] is rat peritoneal mast cells. Kind of series: Mast cell degranulation stimulated with compound 48/80 (release of β-glucuronidase and histamine). The format is cell-based. The settings on record: for IC50: Mast cell, compound 48/80 (10 μg/mL); for % of inhibition of Histamine release at the highest concentration / % of inhibition of β-Glucuronidase release at the highest concentration: compound 48/80, at the highest concentration (bound given in the source). On the procedure: Heparinized Tyrode's solution was injected into the peritoneal cavity of exsanguinated rat (Sprague-Dawley, 250-300 g, 10-12 weeks old). […] Cell pellets were washed and suspended in Tyrode's solution with 0.1% BSA to 1×10^6 cells/mL. Cell suspension was then preincubated at 37° C. with DMSO or a tested compound for 5 min. The final volume of DMSO in the reaction mixture was≦0.5%. […] After treatment of the cell suspension with Triton X-100, the total content of β-glucuronidase and histamine was measured, and the percentage release was calculated. In the experiment, Mepacrine was used as a positive control.

Another series has as its system N9 cells. Kind of series: NO production (nitrite accumulation, Griess reaction) in LPS/IFN-γ-stimulated microglial cells. The settings on record: for % of inhibition of NO2− accumulation at the highest concentration, N9 cells: LPS/IFN-γ, at the highest concentration (bound given in the source); for IC50: Mus musculus, N9, LPS (10 ng/mL)/IFN-γ (10 unit/mL), 24 hrs, read-out: IC50, accumulation of NO2− in culture media, N9 cells. The format is cell-based, murine. On the procedure: Cells of murine microglial cell line N9 (kindly provided by Dr. P. Ricciardi-Castagnoli, CNR Cellular and Molecular Pharmacology Center, Italy) (S. B. Corradin et al. (1993), Glia, 7, 255-262) were suspended in Iscove's Modified Dulbecco's medium containing 5% heat-inactivated FCS and antibiotics and then plated into 96-well tissue-culture plates at 8×10^4 cells/200 μL per well. The cells were treated with DMSO or a tested compound at 37° C. for 1 hr, followed by stimulation with LPS (10 ng/mL)/IFN-γ (10 unit/mL) for 24 hrs. Thereafter, the medium in each well was collected and stored at −70° C. until use. The final volume of DMSO in the reaction mixture was<0.5%
as §1
(Griess reagent forms a coloured azo dye with nitrite.)

Series [4] relates to rat neutrophils. Kind of series: Superoxide anion generation in neutrophils stimulated with fMLP/CB or PMA (cytochrome c reduction). The format is cell-based. The settings on record: Neutrophil, rat neutrophils; for inhibition: at the highest concentration (bound given in the source). On the procedure: Superoxide anion generation was measured in terms of superoxide dismutase-inhibitable cytochrome c reduction (M. Market et al. (1984), Methods Enzymol., 105, 358). Neutrophil suspension was preincubated with DMSO or a tested compound for 3 min, and then superoxide dismutase or Hank's balanced salt solution (HBSS) was added into the blank and test wells, respectively. The final volume of DMSO in the reaction mixture was≦0.5%. After addition of cytochrome c, reaction was initiated by challenge with formyl-Met-Leu-Phe (fMLP) (0.3 μM)/cytochalasin B (CB) (5 μg/mL) or phorbol myristate acetate (PMA) (3 nM). Thirty minutes later, the reaction was terminated by centrifugation and the absorbance changes of supernatant were monitored at 550 nm in a microplate reader. In the experiment, Trifluoperazine was used as a positive control

Setting [5] is: read-out: IC50, release of Lysozyme.
Setting [6] is: read-out: IC50, release of β-Glucuronidase.
Where [7] appears, read: read-out: IG50, release of Histamine.
Setting [8] is: read-out: IG50, release of β-Glucuronidase.
[9] abbreviates: PMA (3 nM), read-out: IC50, superoxide anion generation, PMA.
Where [10] appears, read: fMLP (0.3 μM)/CB (5 μg/mL), read-out: IC50, superoxide anion generation, fMLP/CB.
The mark [11] stands for this setting: fMLP/CB, at the highest concentration (bound given in the source).

Where two headings read alike, the source gives them in different places.

A word on the melting point: it is the temperature, or range, at which the solid turns liquid. Usually inhibition stands for the percentage by which the read-out fell short of the control. Read a low inhibition as a response near the control.

As to `CC(C)=CCc1cc(C(=O)/C=C/c2ccc(O)c(O)c2)c(O)cc1O` [Brousschalcone A], in the series with rat neutrophils [1], the “% inhibition of release of lysozyme” value is 68.0±13.4% and the “% inhibition of release of β-glucuronidase” value is reported as 51.1±12.6%.

In turn, `CCCOc1ccc(O)c(C(=O)/C=C/c2ccc(Cl)c(Cl)c2)c1` [Compound 6, 3,4-Dichloro-2′-hydroxy-5′-propoxy-chalcone] came in with a melting point of 97 to 99 °C. In the series on RAW 264.7 cells, the “% of inhibition of NO2− accumulation at the highest concentration, RAW 264.7 cells” value is 7.5 ± 0.4% and the IC50 was more than 10 µM. Also, the IC50 in the series on rat neutrophils [2] (setting [5]) was 6.6 ± 0.4 µM. Besides, the IC50 in the series with rat neutrophils [2] (setting [6]) is 6.2 ± 0.3 µM. The IC50 in series [3] (setting [7]) is more than 30 µM. Moreover, the IC50 in series [3] (setting [8]) is more than 30 µM. In series [3], the “% of inhibition of Histamine release at the highest concentration” value is recorded as 47.6 ± 2.4% and the “% of inhibition of β-Glucuronidase release at the highest concentration” value is on record as 49.2 ± 2.0%. In the series with N9 cells, the “% of inhibition of NO2− accumulation at the highest concentration, N9 cells” value is 26.4 ± 2.3% and the IC50 was more than 30 µM. This molecule displayed an inhibition in the series with rat neutrophils [4] (PMA (3 nM)) of 49.9%. Besides, the IC50 in the series with rat neutrophils [4] (setting [9]) was more than 30 µM. In the series on rat neutrophils [4] (setting [10]), the IC50 was 17.7 ± 7.2 µM.

`O=C(/C=C/c1cccs1)c1cccs1` [Compound 8, 2′,2-Dithienylchalcone] displayed a melting point of 95 to 97 °C. For the same molecule, in the series on RAW 264.7 cells, the “% of inhibition of NO2− accumulation at the highest concentration, RAW 264.7 cells” value is on record as 12.5 ± 2.2% and the IC50 is more than 30 µM. Moreover, in the series on rat neutrophils [2] (setting [5]), the IC50 was more than 30 µM. For the same molecule, in the series with rat neutrophils [2] (setting [6]), the IC50 is more than 30 µM. Moreover, in the series with rat neutrophils [2] (setting [11]), the “% of inhibition of Lysozyme release at the highest concentration” value is 30.0 ± 1.4% and the “% of inhibition of β-Glucuronidase release at the highest concentration” value is on record as 46.6 ± 0.7%. In addition, the IC50 in series [3] (setting [7]) is more than 30 µM. Further, the IC50 in series [3] (setting [8]) is more than 30 µM. Moreover, in series [3], the “% of inhibition of Histamine release at the highest concentration” value is 20.9 ± 1.2% and the “% of inhibition of β-Glucuronidase release at the highest concentration” value is recorded as 17.3 ± 2.6%. Besides, in the series with N9 cells, the “% of inhibition of NO2− accumulation at the highest concentration, N9 cells” value is listed as 15.2 ± 0.5% and the IC50 was more than 30 µM. This molecule also had an inhibition in the series on rat neutrophils [4] (PMA (3 nM)) of 35.6%. For the same molecule, the IC50 in the series on rat neutrophils [4] (setting [9]) was more than 30 µM. In addition, the IC50 in the series with rat neutrophils [4] (setting [10]) came out at 24.3 ± 3.2 µM.

Source of the values: patent US20040176471A1, “Novel chalcone derivatives and pharmaceutical compositions comprising the same” (KAOHSIUNG MEDICAL UNIVERSITY, priority 2003, published 2004).
